# In patent publication US20250108070A1, “METHOD FOR REPROGRAMMING CD8+ T CELLS TO ENHANCE THEIR THERAPEUTIC POTENTIAL AND APPLICATIONS THEREOF” (INSTITUT PASTEUR, priority 2022, published 2025):
# Tested on: CD8+ T cells from people without HIV
# Assay: In vitro reprogramming of bulk CD8+ T cells, phenotype without further stimulation
# Type: cell-based, human
# Protocol: FIG. 1. Induction of stem-like CD8^+ T cells with high survival capacity and polyfunctionality by in vitro reprogramming. A. CD8^+ T cells from people without HIV were incubated with medium, vehicle control, or a GSK3 inhibitor, for 12 hs and the phenotype was evaluated by flow cytometry. A representative donor from a total of 4 is shown. B. Frequencies of CD8^+ T cell subpopulations after each treatment. C. Fold change of CD8^+ T cell subpopulations after treatment with vehicle control or a GSK3 inhibitor, relative to medium alone condition (n=4). D. Expression of TCF-1 in CD8^+ T cell subpopulations (n=4). E. The expression of the indicated markers in cells pre-treated with vehicle control or a GSK3 inhibitor was evaluated by flow cytometry. The fold change in the expression induced by 48 hs anti-CD3/CD28 stimulation, relative to unstimulated cells, is shown (n=5). F. Left: Flow cytometry analysis of dead cells (Aqua Live/Dead^+) among total and T-bet+CD8^+ T cells. Right: Fold change in dead CD8^+ T cells induced by anti-CD3/CD28 stimulation, relative to the unstimulated condition (n=5). G. Frequencies of granzyme B^+, TL-2^+, IFN-γ^+, and TNF-α^+CD8^+ T cells after anti-CD3/CD28 stimulation. H. Expression of 1 to 4 functions in CD8^+ T cells after anti-CD3/CD28 stimulation (n=5). I. After reprogramming with the GSK3 inhibitor, CD8^+ T cells were stimulated for 48 hs with anti-CD3/CD28, followed by wash and resting for 5 days. Then, cells were restimulated for another 48 hs with anti-CD3/CD28. Left: Flow cytometry analysis of proliferating (CFSE dilution) CD8^+ T cells. Right: Frequencies of CD8^+ T cells with 0, 1-3 or ≥4 cell divisions (n=9). J. Frequency of the total HCMV pp65-specific CD8^+ T cell response (IFN-γ^+ or CD107a^+ or TNF-α^+), after vehicle control or GSK3 inhibitor treatment, followed by HCMV pp65 peptides stimulation for 6 hs (n=6). K. Frequencies of CD8^+ T cell subpopulations among HCMV pp65-specific CD8^+ T cells (n=6). L. Expression of IFN-γ, CD107a, and TNF-α in HCMV pp65-specific CD8^+ T cells (n=6). M. Frequency of the total HCMV pp65-specific CD8^+ T cell response after HCMV pp65 peptides stimulation for 6 days (n=6). *P<0.05; **P≤0.01. NS: Not statistically significant. TSCM: Stem cell memory; TCM: Central memory; TTM: Transitional memory; TEM: Effector memory; TTE: Terminal effector.
# FIG. 2. A. Flow cytometry gating strategy used to identify CD8^+ T cell subpopulations: Naïve, Stem cell memory (TSCM), Central memory (TCM), Transitional memory (TTM), Effector memory (TEM), and Terminal effector (TTE). B. Expression of CCR7, CD27 and TCF-1 in total CD8^+ T cells after treatment with vehicle control, or the GSK3 inhibitors BIO or TWS119, for 12 hs. The median fluorescence intensity of each marker is depicted. C. Fold change in TSCM, TCM and TEM cells induced by BIO or TWS119, relative to vehicle control (n=3 people without HIV). D. Fold change in T-bet^+ cells among TSCM and TCM induced by anti-CD3/CD28 stimulation, relative to vehicle control, in cells previously treated with vehicle control, BIO or TWS119 (n=3). E. Fold change in T-bet^+ cells among naïve/TSCM induced by anti-CD3/CD28 stimulation (0.2 and 1 μg/mL), relative to unstimulated cells, previous treatment with vehicle control or the GSK3 inhibitor (n=3). F. Fold change in T-bet^+ cells among each CD8^+ T cell subpopulation induced by anti-CD3/CD28+ICAM-1 stimulation, relative to unstimulated cells (n=5). G. Frequency of IL-2^+TNF-α^+ cells among each CD8^+ T cell subpopulation after anti-CD3/CD28+ICAM-1 stimulation (n=5). H. Correlation between the frequency of PD-1^+LAG-3^+TIM3^+TIGIT^+CD8^+ T cells and the proportion of CD8^+ T cells with ≥4 cell divisions after restimulation (n=6). I. After reprogramming with the GSK3 inhibitor, CD8^+ T cells were left unstimulated, stimulated once for 48 hs with anti-CD3/CD28, or stimulated twice with anti-CD3/CD28. The expression of T-bet in TCM and TTM cells is shown (n=5). *P<0.05. […]
# [1] = BIO and TWS119 in parallel, 3 μM, 12 hs, FIG. 2C
smiles,measurement,setting,value
"O=C1Nc2cc(Br)ccc2/C1=C1/Nc2ccccc2/C1=N\O [BIO, 6-bromoindirubin-3′-oxime]",expression of TCF-1,"3 μM, 12 hs, FIG. 1D",enhanced expression
same,CD8+ T cells with stem cell memory (TSCM) and central memory (TCM) phenotype,"3 μM, 12 hs, FIGS. 1A-C",enrichment
same,effector memory (TEM) and terminal effector (TTE) cells,"3 μM, 12 hs, FIGS. 1A-C",decrease
same,surface expression of CCR7 and CD27,"3 μM, 12 hs, absence of further stimulation, FIG. 1A",upregulation
same,"CCR7, CD27, and TCF-1","BIO and TWS119 in parallel, 3 μM, 12 hs, FIG. 2B",induced
same,TEM cells,[1],decrease
same,TSCM and TCM cells,[1],increase
same,effect compared between the two GSK3 inhibitors,FIGS. 2B and C,greater effect than TWS119
